Reference: patent US20230073368A1, “THERAPY OF RAS-DEPENDENT CANCERS” (Turun Yliopisto, priority 2020, published 2023)

Test system: PANC-1 cells
Experiment: Proliferation assay of SHANK3 silenced PANC-1 cells treated with ERK and MEK inhibitors
Assay type: cell-based, human
Settings: dose-dependent, 7.8 nM-8 μM gradient
Protocol: Proliferation Assay of SHANK3 Silenced PANC-1 Cells Treated with ERK and MEK Inhibitors
Cells were seeded on a 96-well plate (2000-5000 cells/well) a day before transfection and silenced the next day when cell confluence was approximately 30%. Next day after silencing, medium was changed to full medium containing DMSO (control), Trametinib, Selumetinib (ADZ6244) or selective ERK1/2 inhibitor (SCH772984) in dose-dependent manner (concentration gradient: 0, 7.8 nM, 15.5 nM 31.3 nM 62.5 nM, 125 nM, 250 nM, 500 nM, 1 μM, 2 μM, 4 μM and 8 μM). Proliferation was measured using IncuCyte S3 as described above.

O=C(Nc1ccc2[nH]nc(-c3ccncc3)c2c1)[C@@H]1CCN(CC(=O)N2CCN(c3ccc(-c4ncccn4)cc3)CC2)C1 [SCH772984]
rescue of cell viability lost by SHANK3-silencing: abolished a loss of cell viability induced by SHANK3-silencing
